Several values for one entry are separate records, joined by “and”; a condition that tells them apart may be missing. Equal values may be shown once. Read-outs that look alike come from different tables or passages of the source.

The test system of one test is A/WSN/33 M2 N31S virus. In kind it is cell-based, influenza A virus. The settings on record: for EC50: read-out: EC50 ± SD.
In test [1] the test system is A/WSN/33 virus (with naturally occurring M2 N31). Briefly: microbe, parasite or virus in culture. The class given is cell-based. The settings on record: for EC50: read-out: EC50 ± SD.
Test [2] has as its target T1, full-length A/Udorn/72 M2 S31N (Influenza A virus, UniProt P0DOF5, S31N). The settings on record: cited from earlier work.
For test [3], the target named is T1, full-length A/Udorn/72 M2 S31N.
Setting [4] is: CPE inhibition assay, MDCK cells, amantadine-resistant A/WSN/33 (M2 N31).

`c1csc(-c2cc(CNC34CC5CC(CC(C5)C3)C4)on2)c1` [Compound 6]: the “EC50 ± SD” value with A/WSN/33 M2 N31S virus was “not active”. For the same compound, the EC50 – broadly, the midpoint of the concentration-response curve – in test [1] (setting [4]) came out at 0.153 µM. Moreover, the IC50 (usually the point on the concentration scale where inhibition reaches its midpoint) in test [2] (read-out: IC50 in TEVC with M2 S31N, previously reported) is 16 µM. Besides, the Kd (in general, the free concentration of one partner at which half of the binding sites on the other are occupied at equilibrium, for simple one-to-one binding) in test [2] (read-out: Kd (literature value, footnote g), footnote to the Kd value, ref [3]) was 16 µM. Besides, in test [3], the “Blockage Eliminated in Wash Out(%)” value is listed as 6.8 ± 1.2%; the Kd worked out at 7.5 ± 0.3 µM; the “Percent Block” value was 99.2% and 99 ± 1%; the kon (usually the second-order rate constant of association) was 2280 ± 150 M⁻¹ s⁻¹.

Regarding `CCOC(=O)C1=C[C@@H](OC(CC)CC)[C@H](NC(C)=O)[C@@H](N)C1` [Oseltamivir], the EC50 was found to be 0.03 ± 0.02 µM in the test on A/WSN/33 M2 N31S virus and 0.01 ± 0.01 µM in test [1] (Influenza A virus, WSN, MDCK).

With `NC12CC3CC(CC(C3)C1)C2` [Amantadine, amantadine], the EC50 with A/WSN/33 M2 N31S virus was 0.25 ± 0.07 µM. Besides, the “EC50 ± SD” value in test [1] (setting [4]) is reported as “not active”.
